In patent US5525600A, “(Thiophen-2-yl)-piperidin or tetrahydropyridin carboxamides” (American Home Products Corporation, priority 1994, dated 1996):
Where a name gives a salt, the structure may show the parent alone. Read-outs that look alike come from different tables or passages of the source.

Target: T1, 5-HT1A serotonin receptor (Rattus norvegicus, UniProt P19327)
T1 sequence (P19327 1-422): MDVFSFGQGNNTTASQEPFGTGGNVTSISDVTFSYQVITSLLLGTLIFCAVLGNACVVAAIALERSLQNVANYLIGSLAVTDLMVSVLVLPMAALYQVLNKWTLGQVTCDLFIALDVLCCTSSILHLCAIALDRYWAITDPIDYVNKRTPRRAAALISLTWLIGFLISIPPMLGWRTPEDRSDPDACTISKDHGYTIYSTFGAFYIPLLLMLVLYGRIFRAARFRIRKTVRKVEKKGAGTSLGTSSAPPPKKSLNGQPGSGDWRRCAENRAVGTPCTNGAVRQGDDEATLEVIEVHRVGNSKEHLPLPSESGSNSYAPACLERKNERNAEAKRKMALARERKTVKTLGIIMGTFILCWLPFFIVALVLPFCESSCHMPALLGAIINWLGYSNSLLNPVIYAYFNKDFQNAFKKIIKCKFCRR
Assay: biochemical
Type: binding

[1] = displacement of [^3 H]8-OHDPAT, read-out: 5-HT1A Binding (IC50)

| SMILES | IC50 [1] | IC50 | further results |
| --- | --- | --- | --- |
| COc1ccsc1C1CCN(CC[C@H](C(=O)N2CCCCCC2)c2ccccc2)CC1 [Example 5, (2S)-1-(Azepan-1-yl)-4-[4-(3-methoxy-thiophen-2-yl)-piperidin-1-yl]-2-phenyl-butan-1-one dihydrochloride salt] | 0.7 nM |  |  |
| COc1ccsc1C1(O)CCN(CCC(C(=O)N2CCCCCC2)c2ccccc2)CC1 (stereo not drawn) [Example 1, 1-Azepan-1-yl-4-[4-hydroxy-4-(3-methoxy-thiophen-2-yl)-piperidin-1-yl]-2-phenyl-butan-1-one 0.75 hydroiodide] |  | 0.8 nM |  |
| COc1ccsc1C1=CCN(CCC(C(=O)N2CCCCCC2)c2ccccc2)CC1 (stereo not drawn) [Example 2, 1-Azepan-1-yl-4-[4-(3-methoxy-thiophen-2-yl)-1,2,3,6-tetrahydro-pyridin-1-yl]-2-phenyl-butan-1-one] |  | 0.25 nM |  |
| O=C1CC2(CCCC2)CC(=O)N1CCCCN1CCN(c2ncccn2)CC1 [buspirone, reference compound] |  |  | affinity for the serotonin 5-HT1A receptor (in words) (displacement of [^3 H]8-OHDPAT): potent affinity |
| COc1ccsc1C1=CCN(CC[C@H](C(=O)N2CCCCCC2)c2ccccc2)CC1 [Example 4, (S)-1-Azepan-1-yl-4-[4-(3-methoxy-thiophen-2-yl)-1.2.3.6-tetrahydro-pyridin-1-yl]-2-phenyl-butan-1-one hydrochloride salt] |  | 0.2 nM |  |
| COc1ccsc1C1CCN(CCC(C(=O)N2CCCCCC2)c2ccccc2)CC1 (stereo not drawn) [Example 3, 1-Azepan-1-yl-4-[4-(3-methoxy-thiophen-2-yl)-piperidin-1-yl]-2-phenyl-butan-1-one fumarate salt] | 0.98 nM |  |  |
